Results as given in patent US11602534B2, “Pyrimidine derivative kinase inhibitors” (HEFEI INSTITUTES OF PHYSICAL SCIENCE, CHINESE ACADEMY OF …, priority 2017, dated 2023).

Tests used:
Type in all cases: cell-based, human
[1] = test system: protein kinase FLT3; test: Phosphorylation of FLT3 in AML cells; settings: MV-4-11, MOLM-13 and MOLM-14 cell lines; 4 hours; compounds 0.01-3 μM, PKC412 1 μM
Procedure: (§1) In cells having FLT3 gene and/or FLT3/ITD mutant gene, specifically, human acute myeloid leukemia cells MV4-11 (expressing FLT3/ITD mutant gene) cell strain and human acute myeloid leukemia cells MOLM-13 and MOLM-14 (expressing FLT3/ITD mutant gene and wild-type FLT3 gene) cell strains, Compound 5, Compound 135 and a FLT3 kinase inhibitor, PKC412 (purchased from Hao Yuan Chemexpress Company, Shanghai), which was used as the control, were evaluated for their effects in cells on phosphorylation of FLT3 and FLT3/ITD protein kinase and phosphorylation of the closely-related STATS protein which is downstream of FLT3 signaling pathways, as well as their effects on phosphorylation of other relevant protein kinases such as ERK and AKT, by assaying a number of cellular biochemical and functional endpoints. In addition, the effects on C-Myc and phosphorylation of the transcription factor NF-κB subunit p65 was also examined (FIGS. 1a-1f). Compound 5 and Compound 135 at different concentrations (0 μM, 0.01 μM, 0.03 μM, 0.1 μM, 0.3 μM, 1 μM, 3 μM in DMSO) and the FLT3 kinase inhibitor PKC412 (1 μM in DMSO) were used to treat acute myeloid leukemia cells MV-4-11, MOLM13 and MOLM-14 that had FLT3 and/or FLT3/ITD gene for 4 hours, respectively, and then the samples were collected. The effects of the compounds on the phosphorylation of proteins such as STATS, C-Myc, ERK, NF-κB p65, AKT in cells were tested (FIGS. 1a-1f).

[2] = Phosphorylation of STATS downstream of FLT3 in AML cells; settings: MV-4-11, MOLM13 and MOLM-14; 4 hours; compounds 0.01-3 μM, PKC412 1 μM
Procedure: as §1

[3] = test system: C-Myc; test: Degradation of C-Myc in AML cells; settings: MV-4-11, MOLM13 and MOLM-14; 4 hours; compounds 0.01-3 μM, PKC412 1 μM
Procedure: as §1

CO[C@@H]1[C@H](N(C)C(=O)c2ccccc2)C[C@H]2O[C@]1(C)n1c3ccccc3c3c4c(c5c6ccccc6n2c5c31)C(=O)NC4 [PKC412, reference compound]
strongly inhibited: phosphorylation of the protein kinase FLT3 [1] | phosphorylation of STATS [2] | degradation of C-Myc [3]
